This is an account of results in patent US20050272720A1 (priority 2004, published 2005).

A short description of the series: Solid-state stability of olanzapine acetate under normal conditions. In kind it is physicochemical. From the text: The olanzapine acetate in solid state is a particulate material, with no or minimal tendency of reversible absorption of water from the environment, and with good handling properties.

Molecules are shown by their SMILES.

Regarding `Cc1cc2c(s1)Nc1ccccc1N=C2N1CCN(C)CC1` [olanzapine acetate], the “stability under normal conditions of temperature and moisture” value is given as “sufficiently stable”.
